Source: ChEMBL document CHEMBL3045384, “Evaluating commercially available rodenticide baits for invasive Gambian giant pouched rats (Cricetomys gambianus)” (2010)

Tests used:
Format in all cases: functional
Cricetomys gambianus [1] = assay: Rodenticidal activity against invasive Cricetomys gambianus (Gambian giant pouched rat) assessed as rodent mortality using 0.0025% compound pellets bait by 7 day multiple-choice feeding trail method
Cricetomys gambianus [2] = assay: Rodenticidal activity against invasive Cricetomys gambianus (Gambian giant pouched rat) assessed as mean duration to death using 0.0025% compound pellets bait by 7 day multiple-choice feeding trail method
Cricetomys gambianus [3] = assay: Rodenticidal activity against invasive Cricetomys gambianus (Gambian giant pouched rat) assessed as mean bait consumed using 0.0025% compound pellets bait by 7 day multiple-choice feeding trail method
Cricetomys gambianus [4] = assay: Rodenticidal activity against invasive Cricetomys gambianus (Gambian giant pouched rat) assessed as rodent body weight using 0.0025% compound pellets bait by 7 day multiple-choice feeding trail method (reference value: 1.44 kg)
Cricetomys gambianus [5] = assay: Rodenticidal activity against invasive Cricetomys gambianus (Gambian giant pouched rat) assessed as proportion of bait consumed using 0.0025% compound pellets bait by 7 day multiple-choice feeding trail method
Cricetomys gambianus [6] = assay: Rodenticidal activity against invasive Cricetomys gambianus (Gambian giant pouched rat) assessed as mean duration to death using 0.01% compound blocks bait by 7 day multiple-choice feeding trail method
Cricetomys gambianus [7] = assay: Rodenticidal activity against invasive Cricetomys gambianus (Gambian giant pouched rat) assessed as proportion of bait consumed using 0.01% compound blocks bait by 7 day multiple-choice feeding trail method
Cricetomys gambianus [8] = assay: Rodenticidal activity against invasive Cricetomys gambianus (Gambian giant pouched rat) assessed as mean bait consumed using 0.01% compound blocks bait by 7 day multiple-choice feeding trail method
Cricetomys gambianus [9] = assay: Rodenticidal activity against invasive Cricetomys gambianus (Gambian giant pouched rat) assessed as rodent body weight using 0.01% compound blocks bait by 7 day multiple-choice feeding trail method (reference value: 1.44 kg)
Cricetomys gambianus [10] = assay: Rodenticidal activity against invasive Cricetomys gambianus (Gambian giant pouched rat) assessed as rodent mortality using 0.01% compound blocks bait by 7 day multiple-choice feeding trail method
Cricetomys gambianus [11] = assay: Rodenticidal activity against invasive Cricetomys gambianus (Gambian giant pouched rat) assessed as mean bait consumed using 0.0005% compound pellets bait by 7 day multiple-choice feeding trail method
Cricetomys gambianus [12] = assay: Rodenticidal activity against invasive Cricetomys gambianus (Gambian giant pouched rat) assessed as rodent mortality using 0.0005% compound pellets bait by 7 day multiple-choice feeding trail method
Cricetomys gambianus [13] = assay: Rodenticidal activity against invasive Cricetomys gambianus (Gambian giant pouched rat) assessed as proportion of bait consumed using 0.0005% compound pellets bait by 7 day multiple-choice feeding trail method
Cricetomys gambianus [14] = assay: Rodenticidal activity against invasive Cricetomys gambianus (Gambian giant pouched rat) assessed as rodent body weight using 0.0005% compound pellets bait by 7 day multiple-choice feeding trail method (reference value: 1.44 kg)
Cricetomys gambianus [15] = assay: Rodenticidal activity against invasive Cricetomys gambianus (Gambian giant pouched rat) assessed as mean duration to death using 0.0005% compound pellets bait by 7 day multiple-choice feeding trail method
Cricetomys gambianus [16] = assay: Rodenticidal activity against invasive Cricetomys gambianus (Gambian giant pouched rat) assessed as rodent mortality using 0.005% compound pellets bait by 7 day multiple-choice feeding trail method
Cricetomys gambianus [17] = assay: Rodenticidal activity against invasive Cricetomys gambianus (Gambian giant pouched rat) assessed as mean bait consumed using 0.005% compound blocks bait by 7 day multiple-choice feeding trail method
Cricetomys gambianus [18] = assay: Rodenticidal activity against invasive Cricetomys gambianus (Gambian giant pouched rat) assessed as rodent mortality using 0.005% compound blocks bait by 7 day multiple-choice feeding trail method
Cricetomys gambianus [19] = assay: Rodenticidal activity against invasive Cricetomys gambianus (Gambian giant pouched rat) assessed as proportion of bait consumed using 0.005% compound blocks bait by 7 day multiple-choice feeding trail method
Cricetomys gambianus [20] = assay: Rodenticidal activity against invasive Cricetomys gambianus (Gambian giant pouched rat) assessed as proportion of bait consumed using 0.005% compound pellets bait by 7 day multiple-choice feeding trail method
Cricetomys gambianus [21] = assay: Rodenticidal activity against invasive Cricetomys gambianus (Gambian giant pouched rat) assessed as rodent body weight using 0.005% compound blocks bait by 7 day multiple-choice feeding trail method (reference value: 1.44 kg)
Cricetomys gambianus [22] = assay: Rodenticidal activity against invasive Cricetomys gambianus (Gambian giant pouched rat) assessed as mean duration to death using 0.005% compound blocks bait by 7 day multiple-choice feeding trail method
Cricetomys gambianus [23] = assay: Rodenticidal activity against invasive Cricetomys gambianus (Gambian giant pouched rat) assessed as rodent body weight using 0.005% compound pellets bait by 7 day multiple-choice feeding trail method (reference value: 1.44 kg)
Cricetomys gambianus [24] = assay: Rodenticidal activity against invasive Cricetomys gambianus (Gambian giant pouched rat) assessed as mean bait consumed using 0.005% compound pellets bait by 7 day multiple-choice feeding trail method

SMILES: O=c1oc2ccccc2c(O)c1C1CC(c2ccc(-c3ccc(Br)cc3)cc2)Cc2ccccc21 (centres undefined) [BRODIFACOUM]
- Activity (Cricetomys gambianus [1]): 100%
- Time (Cricetomys gambianus [2]): 12.2 days
- Activity (Cricetomys gambianus [3]): 89 g
- Activity (Cricetomys gambianus [4]): 1.37 kg
- Activity (Cricetomys gambianus [5]): 0.39%

SMILES: CN(c1c(Br)cc(Br)cc1Br)c1c([N+](=O)[O-])cc([N+](=O)[O-])cc1C(F)(F)F [BROMETHALIN]
- Time (Cricetomys gambianus [6]): 14 days
- Activity (Cricetomys gambianus [7]): 0.21%
- Activity (Cricetomys gambianus [8]): 25.58 g
- Activity (Cricetomys gambianus [9]): 1.55 kg
- Activity (Cricetomys gambianus [10]): 20%

SMILES: O=C1c2ccccc2C(=O)C1C(=O)C(c1ccccc1)c1ccc(Cl)cc1 (centres undefined) [CHLOROPHACINONE]
- Activity (Cricetomys gambianus [11]): 89.7 g
- Activity (Cricetomys gambianus [12]): 50%
- Activity (Cricetomys gambianus [13]): 0.3%
- Activity (Cricetomys gambianus [14]): 1.47 kg
- Time (Cricetomys gambianus [15]): 11.7 days

SMILES: O=C1c2ccccc2C(=O)C1C(=O)C(c1ccccc1)c1ccccc1 [DIPHENADIONE]
- Activity (Cricetomys gambianus [16]): 0%
- Activity (Cricetomys gambianus [17]): 92.6 g
- Activity (Cricetomys gambianus [18]): 17%
- Activity (Cricetomys gambianus [19]): 0.3%
- Activity (Cricetomys gambianus [20]): 0.35%
- Activity (Cricetomys gambianus [21]): 1.5 kg
- Time (Cricetomys gambianus [22]): 12 days
- Activity (Cricetomys gambianus [23]): 1.47 kg
- Activity (Cricetomys gambianus [24]): 106.2 g
